“And” between values parts separate entries of the source, which are not always exact repeats. Equal entries are not always repeated. Toxic doses and inconclusive results are not listed.
Tested on: P388 leukemia ip, CD2F1 mice, survival T/C
Assay: NCI In Vivo Anticancer Drug Screen. Data for tumor model P388 Leukemia (intraperitoneal) in CD2F1 (CDF1) mice
Details: endpoint: median survival time, higher = longer survival
How it was run: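 Mice carrying the transplanted tumor received test compound or vehicle. Survival was recorded in each group, and the value is the treated-group measurement divided by that of the vehicle-treated control group.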

[1] = dose: 12.5 mg/kg/injection, schedule: Q01DX009 (ip), vehicle: saline
[2] = dose: 25.0 mg/kg/injection, schedule: Q01DX009 (ip), vehicle: saline
[3] = dose: 50.0 mg/kg/injection, schedule: Q01DX005 (ip), vehicle: saline with Tween-80
[4] = dose: 100.0 mg/kg/injection, schedule: Q01DX005 (ip), vehicle: saline with Tween-80
[5] = dose: 200.0 mg/kg/injection, schedule: Q01DX005 (ip), vehicle: saline with Tween-80
[6] = dose: 0.5 mg/kg/injection, schedule: Q01DX009 (ip), vehicle: saline with Tween-80
[7] = dose: 1.0 mg/kg/injection, schedule: Q01DX009 (ip), vehicle: saline with Tween-80
[8] = dose: 100.0 mg/kg/injection, schedule: Q04DX002 (ip), vehicle: Klucel (hydroxypropylcellulose) (HPC)
[9] = dose: 200.0 mg/kg/injection, schedule: Q04DX002 (ip), vehicle: Klucel (hydroxypropylcellulose) (HPC)
[10] = dose: 50.0 mg/kg/injection, schedule: Q01DX005 (ip), vehicle: Klucel (hydroxypropylcellulose) (HPC)
[11] = dose: 100.0 mg/kg/injection, schedule: Q01DX005 (ip), vehicle: Klucel (hydroxypropylcellulose) (HPC)
[12] = dose: 12.5 mg/kg/injection, schedule: Q01DX009 (ip), vehicle: saline with Tween-80
[13] = dose: 25.0 mg/kg/injection, schedule: Q01DX009 (ip), vehicle: saline with Tween-80
[14] = dose: 50.0 mg/kg/injection, schedule: Q01DX009 (ip), vehicle: saline with Tween-80
[15] = dose: 100.0 mg/kg/injection, schedule: Q01DX009 (ip), vehicle: saline with Tween-80
[16] = dose: 50.0 mg/kg/injection, schedule: Q04DX002 (ip), vehicle: Klucel (hydroxypropylcellulose) (HPC)
[17] = dose: 200.0 mg/kg/injection, schedule: Q04DX002 (ip), vehicle: saline with Tween-80
[18] = dose: 50.0 mg/kg/injection, schedule: Q01DX009 (ip), vehicle: saline

CCCCCCCCCC[CH2][Sn]([CH2]CCCCCCCCCC)([CH2]CCCCCCCCCC)[CH2]CCCCCCCCCC
T/C (dose: 6.25 mg/kg/injection, schedule: Q01DX009 (ip), vehicle: saline): 99 % of control
T/C [1]: 105 % of control
T/C [2]: 99 % of control

COc1cc(C(C)=O)c(C2=NC(C)(C)CO2)cc1C
T/C [3]: 101 % of control
T/C [4]: 98 % of control
T/C [5]: 97 % of control

CCC[CH2][Sn]([CH2]CCC)([S]CCS(=O)(=O)O)[S]CCS(=O)(=O)O (tested in a mixture with another compound)
T/C (dose: 60.0 mg/kg/injection, schedule: Q01DX005 (ip), vehicle: Klucel (hydroxypropylcellulose) (HPC)): 105 % of control
T/C (dose: 120.0 mg/kg/injection, schedule: Q01DX005 (ip), vehicle: Klucel (hydroxypropylcellulose) (HPC)): 105 % of control
T/C (dose: 240.0 mg/kg/injection, schedule: Q01DX005 (ip), vehicle: Klucel (hydroxypropylcellulose) (HPC)): 115 % of control

COc1cc(C2c3cc4c(cc3CC3COC(=O)C32)OCO4)cc(OC)c1O (stereo unspecified)
T/C [6]: 105 % of control
T/C [7]: 103 % of control
T/C (dose: 2.0 mg/kg/injection, schedule: Q01DX009 (ip), vehicle: saline with Tween-80): 114 % of control
T/C (dose: 3.1 mg/kg/injection, schedule: Q01DX009 (ip), vehicle: saline with Tween-80): 123 % of control
T/C (dose: 4.0 mg/kg/injection, schedule: Q01DX009 (ip), vehicle: saline with Tween-80): 107 % of control

Oc1c(Cl)cc(Cl)cc1/C=N\NC(=S)Nc1ccccc1
T/C [8]: 97 % of control
T/C [9]: 95 % of control

CCCCCCn1[nH]nc(C(=O)OC)c1=O (tested in a mixture with another compound)
T/C [10]: 94 % of control
T/C [11]: 87 % of control
T/C (dose: 200.0 mg/kg/injection, schedule: Q01DX005 (ip), vehicle: Klucel (hydroxypropylcellulose) (HPC)): 92 % of control

O=C1CC(c2ccc(Cl)cc2Cl)Oc2ccc(Cl)cc21 (stereo unspecified)
T/C (dose: 6.25 mg/kg/injection, schedule: Q01DX009 (ip), vehicle: saline with Tween-80): 95 % of control
T/C [12]: 96 % of control
T/C [13]: 95 % of control
T/C [14]: 89 % of control
T/C [15]: 87 % of control and 90 % of control
T/C (dose: 200.0 mg/kg/injection, schedule: Q01DX009 (ip), vehicle: saline with Tween-80): 90 % of control
T/C (dose: 400.0 mg/kg/injection, schedule: Q01DX009 (ip), vehicle: saline with Tween-80): 96 % of control

Cc1ccc(S(=O)(=O)N/N=C/C=C\C(=O)O)cc1
T/C (dose: 12.5 mg/kg/injection, schedule: Q01DX009 (ip), vehicle: distilled water + Tween-80): 101 % of control
T/C (dose: 25.0 mg/kg/injection, schedule: Q01DX009 (ip), vehicle: distilled water + Tween-80): 99 % of control
T/C (dose: 50.0 mg/kg/injection, schedule: Q01DX009 (ip), vehicle: distilled water + Tween-80): 107 % of control
T/C (dose: 100.0 mg/kg/injection, schedule: Q01DX009 (ip), vehicle: distilled water + Tween-80): 100 % of control
T/C (dose: 200.0 mg/kg/injection, schedule: Q01DX009 (ip), vehicle: distilled water + Tween-80): 94 % of control
T/C (dose: 400.0 mg/kg/injection, schedule: Q01DX009 (ip), vehicle: distilled water + Tween-80): 110 % of control

Cc1cc(OC(=O)c2c(C)cc(O)cc2O)cc(O)c1C(=O)O
T/C (dose: 0.25 mg/kg/injection, schedule: Q01DX009 (ip), vehicle: saline with Tween-80): 101 % of control
T/C [6]: 102 % of control
T/C [7]: 101 % of control

c1cn2cnnc2n2cnnc12
T/C [3]: 100 % of control
T/C [4]: 105 % of control
T/C [5]: 97 % of control

O=C(O)C1(Cc2ccc(O)c(O)c2)NCCS1 (stereo unspecified)
T/C (dose: 100.0 mg/kg/injection, schedule: Q01DX001 (ip), vehicle: Klucel (hydroxypropylcellulose) (HPC)): 104 % of control
T/C (dose: 200.0 mg/kg/injection, schedule: Q01DX001 (ip), vehicle: Klucel (hydroxypropylcellulose) (HPC)): 100 % of control

Cc1ccc2nc(-c3ccc(CSC(=N)N)cc3)oc(=O)c2c1
T/C [14]: 93 % of control
T/C [15]: 89 % of control

C=C(C(=O)OC1C/C(C)=C/C(O)C/C(C)=C/C2OC(=O)C(=C)C21)C(C)O (stereo unspecified)
T/C (dose: 25.0 mg/kg/injection, schedule: Q04DX002 (ip), vehicle: Klucel (hydroxypropylcellulose) (HPC)): 109 % of control
T/C (dose: 25.0 mg/kg/injection, schedule: Q04DX002 (ip), vehicle: saline with Tween-80): 110 % of control
T/C [16]: 117 % of control
T/C (dose: 50.0 mg/kg/injection, schedule: Q04DX002 (ip), vehicle: saline with Tween-80): 102 % of control
T/C [8]: 117 % of control
T/C [17]: 124 % of control

C[Si]1(C)CC[Si](C)(C)OS(=O)(=O)CS(=O)(=O)O1
T/C [10]: 100 % of control
T/C [11]: 105 % of control

O=C(O)c1cc(Br)no1
T/C [18]: 95 % of control
T/C (dose: 100.0 mg/kg/injection, schedule: Q01DX009 (ip), vehicle: saline): 90 % of control
T/C (dose: 200.0 mg/kg/injection, schedule: Q01DX009 (ip), vehicle: saline): 89 % of control

COC1=CS(C)(=O)=CC(SC)=C1C#N (stereo unspecified)
T/C [16]: 99 % of control
T/C [8]: 99 % of control
T/C [9]: 98 % of control

COC(=O)[C@@H]1c2cc3c(c(O)c2[C@@H](OC)C[C@@]1(C)O)C(=O)c1c(O)cc2c(c1C3=O)OC1O[C@@]2(C)[C@H](O)[C@@H](N(C)C)[C@@H]1O
T/C (dose: 6.25 mg/kg/injection, schedule: Q01DX010 (ip), vehicle: saline): 110 % of control
T/C (dose: 12.5 mg/kg/injection, schedule: Q01DX009 (ip), vehicle: other): 171 % of control
T/C [1]: 156 % of control
T/C (dose: 12.5 mg/kg/injection, schedule: Q01DX010 (ip), vehicle: saline): 110 % of control
T/C (dose: 25.0 mg/kg/injection, schedule: Q01DX009 (ip), vehicle: other): 176 % of control
T/C [2]: 159 % of control
T/C (dose: 25.0 mg/kg/injection, schedule: Q01DX010 (ip), vehicle: saline): 120 % of control
T/C (dose: 50.0 mg/kg/injection, schedule: Q01DX009 (ip), vehicle: other): 171 % of control
T/C [18]: 98 % of control
T/C (dose: 50.0 mg/kg/injection, schedule: Q01DX010 (ip), vehicle: saline): 110 % of control
T/C (dose: 50.0 mg/kg/injection, schedule: Q04DX003 (ip), vehicle: other): 153 % of control
T/C (dose: 50.0 mg/kg/injection, schedule: Q04DX003 (ip), vehicle: saline): 150 % of control
T/C (dose: 100.0 mg/kg/injection, schedule: Q04DX003 (ip), vehicle: other): 158 % of control
T/C (dose: 100.0 mg/kg/injection, schedule: Q04DX003 (ip), vehicle: saline): 150 % of control

CN(C)CCNC(=O)c1nn(-c2ccccc2)c2c1CSc1ccccc1-2
T/C (dose: 100.0 mg/kg/injection, schedule: Q04DX002 (ip), vehicle: saline with Tween-80): 100 % of control
T/C [17]: 105 % of control
T/C (dose: 400.0 mg/kg/injection, schedule: Q04DX002 (ip), vehicle: saline with Tween-80): 103 % of control

CCN(CC)P(c1ccccc1)N(CC)CC
T/C (dose: 100.0 mg/kg/injection, schedule: Q01DX001 (ip), vehicle: saline): 101 % of control
T/C (dose: 200.0 mg/kg/injection, schedule: Q01DX001 (ip), vehicle: saline): 111 % of control
T/C (dose: 400.0 mg/kg/injection, schedule: Q01DX001 (ip), vehicle: saline): 104 % of control

COc1ccc(-c2c(S(C)(=O)=O)nsc2S(C)(=O)=O)cc1
T/C (dose: 50.0 mg/kg/injection, schedule: Q01DX009 (ip), vehicle: Klucel (hydroxypropylcellulose) (HPC)): 105 % of control
T/C (dose: 100.0 mg/kg/injection, schedule: Q01DX009 (ip), vehicle: Klucel (hydroxypropylcellulose) (HPC)): 106 % of control
T/C (dose: 200.0 mg/kg/injection, schedule: Q01DX009 (ip), vehicle: Klucel (hydroxypropylcellulose) (HPC)): 97 % of control

CCCCCCCCCCCCCCCC(=O)NCCN(CC)CC
T/C [12]: 105 % of control
T/C [13]: 100 % of control

Nc1nc(N)c2nnn(C3OC(CO)C(O)C3O)c2n1 (stereo unspecified)
T/C (dose: 3.0 mg/kg/injection, schedule: Q01DX009 (ip), vehicle: saline): 119 % of control
T/C (dose: 12.0 mg/kg/injection, schedule: Q01DX009 (ip), vehicle: saline): 115 % of control
T/C [1]: 122 % of control
T/C [2]: 105 % of control
T/C [18]: 96 % of control and 105 % of control

Reference: PubChem BioAssay AID330 (DTP/NCI, 2004)
